Experimental data taken from patent publication US10676509B2, “Surface-immobilized antimicrobial peptoids” (Northwestern University, priority 2008, dated 2020).
Converted amounts (≈) assume the structure as drawn. Like-named read-outs stand apart in the source and are kept apart here. Starred links: 1 amine or outer side, 2 acyl side, 3 side chain; linkers in the order of their positions; H or OH if unused. Non-standard residues stand in square brackets, D forms with d. Residues, ends and D or L forms follow the SMILES beside them. N(1S-Me-propyl)Gly = CC[C@H](C)NCC(=O)O; Dopa = N[C@@H](Cc1ccc(O)c(O)c1)C(=O)O; X1 = O=C(CN(CC(F)(F)F)[*:1])[*:2]; Nspe = C[C@H](NCC(=O)O)c1ccccc1; Nlys = NCCCCNCC(=O)O; Nme = COCCNCC(=O)O

Legend:
S. epidermidis = assay type: cell-based, Staphylococcus epidermidis RP62A (ATCC 12228); settings: 16 h
Procedure: (§1) The polymers were initially tested to determine their antibacterial properties in the solution state. Antibacterial activities of the compounds were tested using the methods described above for both Gram-negative and Gram-positive bacterial strains.
(§2) The minimum inhibitory concentration (MIC) for each polymer was determined according to Clinical Laboratory Standards Institute (CLSI) broth microdilution protocols (M7-A6). The procedure explained previously was followed (Chongsiriwatana et al., supra); briefly, serial dilutions of the polymers were prepared in Mueller-Hinton broth (MHB) in 96-well microtiter plates and bacterial inoculum in MHB was added to each well (˜5.0×10^4 CFU/well). Optical density was monitored at 590 nm for 16 h at 35° C.

E. coli [1] = assay type: cell-based, Escherichia coli (ATCC 35218)
Procedure: as §1, §2

B. subtilis = assay type: cell-based, Bacillus subtilis (ATCC 6633); settings: 16 h
Procedure: as §1, §2

P. aeruginosa = assay type: cell-based, Pseudomonas aeruginosa (ATCC 700829); settings: 16 h
Procedure: as §1, §2

[2] = system: E. coli, B. subtilis, S. epidermidis and P. aeruginosa; test: Antibacterial activity in solution (MIC), statements for all bacterial strains; assay type: cell-based; settings: for Antibacterial activity in solution: tested concentrations
Procedure: as §1, §2

E. coli [3] = test: Antibacterial activity on surfaces: bacterial adhesion and membrane permeation (FITC) on modified TiO2 slides; assay type: cell-based, Escherichia coli; settings: for E. coli attachment to modified TiO2: 2 h exposure, compared with bare TiO2; for Percent FITC-stained bacteria: compared among surfaces
Procedure: Bacterial experiments on modified TiO2 slides were performed by exposing the surfaces to an E. coli suspension for two hours and then centrifuging to remove unattached and weakly attached bacteria. The bacteria remaining on the surfaces were imaged in phase contrast for determination of cell numbers, and in fluorescence after staining with FITC to detect cells with compromised membranes. From these images, total number of adherent bacteria (from phase contrast) and percent of attached cells with compromised membranes (from FITC staining) were determined and are shown in Table 3.
E. coli were streaked from frozen stocks onto Mueller-Hinton agar and incubated overnight at 37° C. A few colonies were then used to inoculate 25 ml of sterile Mueller-Hinton broth (MHB) and grown overnight at 37° C. TiO2-coated glass slides were modified with the polymers using the previously described procedure. Two-well chambers were clamped to the slides and sealed by injecting silastic resin, which was allowed to cure overnight. Slides were sterilized by exposure to UV light for 10 minutes. The bacterial suspension was concentrated by centrifugation and resuspended in PBS at a concentration of 5×10^7 CFU/ml; 2 ml of the E. coli suspension was added to each slide chamber. Slide chambers were covered and placed in a humidified incubator at 37° C.; after 2 h, nonadherent bacteria were removed by inverted centrifugation for 2 min at 30 rcf in sealed bags filled with PBS (Jensen et al., 2004). […] Slides were rinsed with PBS and imaged by confocal microscopy equipped with an inverted microscope (Leica TCS SP2). Phase contrast and fluorescent (488-nm band-pass filter for excitation of FITC) images were taken at identical locations to determine bacterial cell count and percent stained with FITC. The microscopy images were quantified using thresholding in ImageJ, and averages with standard deviations for at least nine images from one slide are reported. While slides were prepared in duplicate or triplicate and consistency was qualitatively confirmed between experimental samples, the reported counts and images were obtained from a single slide for each condition.

| Structure (SMILES) | MIC S. epidermidis (S. epidermidis) [µM] | MIC E. coli (E. coli [1]; solution, MHB, 16 h at 35° C.) [µM] | MIC B. subtilis (B. subtilis) [µM] | MIC P. aeruginosa (P. aeruginosa) [µM] | MIC E. coli (E. coli [1]; 16 h) [µM] | MIC relative to AMP alone (times greater) [2] | Antibacterial activity in solution [2] | E. coli attachment to modified TiO2 (E. coli [3]) | Total number of FITC-stained bacteria relative to PMP110 surfaces (E. coli [3]; adhered E. coli, 2 h) | Percent FITC-stained bacteria (E. coli [3]; adhered E. coli) |
| --- | --- | --- | --- | --- | --- | --- | --- | --- | --- | --- |
| C[C@@H](c1ccccc1)N(CC(N)=O)C(=O)CN(C(=O)CN(CCCCN)C(=O)CN(C(=O)CN(C(=O)CN(CCCCN)C(=O)[C@@H]1CCCN1C(=O)CN(C(=O)CN(CCCCN)C(=O)CN(C(=O)CN(C(=O)CNCCCCN)[C@@H](C)c1ccccc1)[C@@H](C)c1ccccc1)[C@@H](C)c1ccccc1)[C@@H](C)c1ccccc1)[C@@H](C)c1ccccc1)[C@@H](C)c1ccccc1 [AMP, H-NLys-Nspe-Nspe-NLys-Nspe-Pro-[NLys-Nspe-Nspe]2—NH2] (H-[Nlys][Nspe][Nspe][Nlys][Nspe]P[Nlys][Nspe][Nspe][Nlys][Nspe][Nspe]-NH2) | 1.6 (≈ 2.81 µg/mL) | 12.5 (≈ 21.9 µg/mL) | 1.6 (≈ 2.81 µg/mL) | 25 (≈ 43.9 µg/mL) |  |  |  |  |  |  |
| COCCN(CC(=O)N(CCOC)CC(=O)N(CCOC)CC(=O)N(CCOC)CC(=O)N(CCOC)CC(=O)N(CCOC)CC(=O)N(CCOC)CC(=O)N(CCOC)CC(=O)N(CCOC)CC(=O)N(CCOC)CC(=O)N(CC(=O)N[C@@H](Cc1ccc(O)c(O)c1)C(=O)N[C@@H](CCCCN)C(=O)N[C@@H](Cc1ccc(O)c(O)c1)C(=O)N[C@@H](CCCCN)C(=O)N[C@@H](Cc1ccc(O)c(O)c1)C(N)=O)CC(F)(F)F)C(=O)CN(CCOC)C(=O)CN(CCOC)C(=O)CN(CCOC)C(=O)CN(CCOC)C(=O)CN(CCOC)C(=O)CN(CCOC)C(=O)CN(CCOC)C(=O)CN(CCOC)C(=O)CN(CCOC)C(=O)CN(CCOC)C(=O)CN(C(=O)CN(C(=O)CN(CCCCN)C(=O)CN(C(=O)CN(C(=O)CN(CCCCN)C(=O)[C@@H]1CCCN1C(=O)CN(C(=O)CN(CCCCN)C(=O)CN(C(=O)CN(C(=O)CNCCCCN)[C@@H](C)c1ccccc1)[C@@H](C)c1ccccc1)[C@@H](C)c1ccccc1)[C@@H](C)c1ccccc1)[C@@H](C)c1ccccc1)[C@@H](C)c1ccccc1)[C@@H](C)c1ccccc1 [PMP1-AMP] (H-[Nlys][Nspe][Nspe][Nlys][Nspe]P[Nlys][Nspe][Nspe][Nlys][Nspe][Nspe][Nme][Nme][Nme][Nme][Nme][Nme][Nme][Nme][Nme][Nme][Nme][Nme][Nme][Nme][Nme][Nme][Nme][Nme][Nme][Nme][X1][Dopa]K[Dopa]K[Dopa]-NH2) | 3.1 (≈ 15.5 µg/mL) |  | 3.1 (≈ 15.5 µg/mL) | 200 (≈ 998 µg/mL) | 50 (≈ 250 µg/mL) | 2-4 times | active against all bacterial strains | comparable to bare TiO2 surfaces | more than ten times greater | highest percentage of bacterial cells with compromised membranes |
| CC[C@H](C)N(CC(=O)N(CCCCN)CC(=O)N(CC(=O)N(CC(=O)N(CCCCN)CC(=O)N(CC(=O)N(CC(=O)N(CCCCN)CC(=O)N(CC(=O)N(CC(=O)N(CCOC)CC(=O)N(CCOC)CC(=O)N(CCOC)CC(=O)N(CCOC)CC(=O)N(CCOC)CC(=O)N(CCOC)CC(=O)N(CCOC)CC(=O)N(CCOC)CC(=O)N(CCOC)CC(=O)N(CCOC)CC(=O)N(CCOC)CC(=O)N(CCOC)CC(=O)N(CCOC)CC(=O)N(CCOC)CC(=O)N(CCOC)CC(=O)N(CCOC)CC(=O)N(CCOC)CC(=O)N(CCOC)CC(=O)N(CCOC)CC(=O)N(CCOC)CC(=O)N(CC(=O)N[C@@H](Cc1ccc(O)c(O)c1)C(=O)N[C@@H](CCCCN)C(=O)N[C@@H](Cc1ccc(O)c(O)c1)C(=O)N[C@@H](CCCCN)C(=O)N[C@@H](Cc1ccc(O)c(O)c1)C(N)=O)CC(F)(F)F)[C@@H](C)CC)[C@@H](C)CC)[C@@H](C)CC)[C@@H](C)CC)[C@@H](C)CC)[C@@H](C)CC)C(=O)CN(C(=O)CNCCCCN)[C@@H](C)CC [PMP1-C, reference compound] (H-[Nlys][N(1S-Me-propyl)Gly][N(1S-Me-propyl)Gly][Nlys][N(1S-Me-propyl)Gly][N(1S-Me-propyl)Gly][Nlys][N(1S-Me-propyl)Gly][N(1S-Me-propyl)Gly][Nlys][N(1S-Me-propyl)Gly][N(1S-Me-propyl)Gly][Nme][Nme][Nme][Nme][Nme][Nme][Nme][Nme][Nme][Nme][Nme][Nme][Nme][Nme][Nme][Nme][Nme][Nme][Nme][Nme][X1][Dopa]K[Dopa]K[Dopa]-NH2) | >100 |  | >100 | >100 | >100 |  | not active at the tested concentrations | much higher than PMP1-AMP and TiO2 surfaces |  | low and comparable to the control TiO2 substrates |
| CC[C@H](C)N(CC(N)=O)C(=O)CN(C(=O)CN(CCCCN)C(=O)CN(C(=O)CN(C(=O)CN(CCCCN)C(=O)CN(C(=O)CN(C(=O)CN(CCCCN)C(=O)CN(C(=O)CN(C(=O)CNCCCCN)[C@@H](C)CC)[C@@H](C)CC)[C@@H](C)CC)[C@@H](C)CC)[C@@H](C)CC)[C@@H](C)CC)[C@@H](C)CC [Peptoid C, H-[NLys-Nssb-Nssb]4-NH2, reference compound] (H-[Nlys][N(1S-Me-propyl)Gly][N(1S-Me-propyl)Gly][Nlys][N(1S-Me-propyl)Gly][N(1S-Me-propyl)Gly][Nlys][N(1S-Me-propyl)Gly][N(1S-Me-propyl)Gly][Nlys][N(1S-Me-propyl)Gly][N(1S-Me-propyl)Gly]-NH2) | >100 |  | >100 | >100 | >100 |  | not active at the tested concentrations |  |  |  |
